Data taken from publication PMC7700423, “Differential Effects of 1α,25-Dihydroxyvitamin D3 on the Expressions and Functions of Hepatic CYP and UGT Enzymes and Its Pharmacokinetic Consequences In Vivo” (Pharmaceutics, 2020).

Tests used:
[1] = Serum chemistry for liver function after 1,25(OH)2D3 treatment; type: in vivo, rat; details: fifth day after 2.56 nmol/kg/day i.p. for 4 days, n = 3
Protocol: Male Sprague-Dawley (SD) rats (8 weeks, 260–280 g) were purchased from Nara Biotech Co. (Seoul, Korea). Animals were maintained in cages under controlled conditions under a 12-h dark/light cycle with free access to food and tap water, acclimated for at least five days in the laboratory before experiments, and allocated to a control group or 1,25(OH)2D3-treated group. The 1,25(OH)2D3 dosing solution was prepared by diluting 1,25(OH)2D3 in ethanol with 5 mL of corn oil (2.56 nmol/mL of final concentration). The dosing solution for the control group was prepared but the 1,25(OH)2D3 was omitted. The dosing solutions were administered intraperitoneally to rats at a dose of 1 mL/kg/day (2.56 nmol/kg/day as 1,25(OH)2D3) over four consecutive days. On the fifth day, rats were used for pharmacokinetic study.
Rat serum was obtained from whole blood on the fifth day after the 1,25(OH)2D3 treatment. The assay of total protein, albumin, serum glutamic oxaloacetic transaminase (sGOT), and serum glutamic pyruvic transaminase (sGPT) was performed by Green Cross Reference Laboratory (Seoul, Korea).

hepatic Cyp2b1 mRNA = experiment: Hepatic mRNA expression by qPCR; type: in vivo, rat; details: 2.56 nmol/kg/day i.p. for 4 days, n = 4-5, p = 0.006
Protocol: (§1) Male Sprague-Dawley (SD) rats (8 weeks, 260–280 g) were purchased from Nara Biotech Co. (Seoul, Korea). […] The dosing solution for the control group was prepared but the 1,25(OH)2D3 was omitted. […] On the fifth day, rats were used for pharmacokinetic study.
(§2) Collected livers were frozen immediately with liquid nitrogen and stored at −80 °C. Trizol reagent in RNAiso Plus (Takara Bio, Inc., Shiga, Japan) was used to extract RNA from 100-mg tissue homogenates according to the manufacturer’s protocol. After purities and total RNA concentrations extracted from liver samples were determined at a wavelength of 260/280 nm with a Nanodrop 2000c spectrophotometer (Thermo Scientific, Waltham, MA, USA), synthesis of cDNA was processed from 1 μg of total RNA using the following conditions: incubation at 50 °C for 1 h, inactivation at 95 °C for 5 min, and cooling to 4 °C. The synthesized cDNA was then subjected to qPCR assays using SYBR® Premix Ex TagTM on Stratagene Mx3005P (Agilent Technologies, Boblingen, Germany) using the following conditions: 95 °C for 10 min and 40 cycles of 95 °C for 15 s and 55 °C for 30 s. A “Comparative Quantitation” mode was selected, and fold expressions were calculated using the delta-delta method 2^−(△△Ct). GAPDH was used as the internal reference gene for normalization. The forward and reverse primers used for qPCR analysis are listed in Supplementary Table S1 [2, 25, 28, 29].

hepatic Cyp2d2 mRNA = experiment: Hepatic mRNA expression by qPCR; type: in vivo, rat; details: 2.56 nmol/kg/day i.p. for 4 days, n = 4-5
Protocol: as §1, §2

hepatic Ugt1a6 mRNA = experiment: Hepatic mRNA expression by qPCR; type: in vivo, rat; details: 2.56 nmol/kg/day i.p. for 4 days, n = 4-5
Protocol: as §1, §2

hepatic Cyp1a2 mRNA = experiment: Hepatic mRNA expression by qPCR; type: in vivo, rat; details: 2.56 nmol/kg/day i.p. for 4 days, n = 4-5
Protocol: as §1, §2

hepatic Ugt1a1 mRNA = experiment: Hepatic mRNA expression by qPCR; type: in vivo, rat; details: 2.56 nmol/kg/day i.p. for 4 days, n = 4-5
Protocol: as §1, §2

hepatic Cyp2c11 mRNA = experiment: Hepatic mRNA expression by qPCR; type: in vivo, rat; details: 2.56 nmol/kg/day i.p. for 4 days, n = 4-5, p = 0.001
Protocol: as §1, §2

hepatic Ugt2b3 mRNA = experiment: Hepatic mRNA expression by qPCR; type: in vivo, rat; details: 2.56 nmol/kg/day i.p. for 4 days, n = 4-5
Protocol: as §1, §2

hepatic Ugt2b1 mRNA = experiment: Hepatic mRNA expression by qPCR; type: in vivo, rat; details: 2.56 nmol/kg/day i.p. for 4 days, n = 4-5
Protocol: as §1, §2

hepatic Ugt1a7 mRNA = experiment: Hepatic mRNA expression by qPCR; type: in vivo, rat; details: 2.56 nmol/kg/day i.p. for 4 days, n = 4-5
Protocol: as §1, §2

hepatic Cyp2c6 mRNA = experiment: Hepatic mRNA expression by qPCR; type: in vivo, rat; details: 2.56 nmol/kg/day i.p. for 4 days, n = 4-5
Protocol: as §1, §2

hepatic Ugt1a8 mRNA = experiment: Hepatic mRNA expression by qPCR; type: in vivo, rat; details: 2.56 nmol/kg/day i.p. for 4 days, n = 4-5
Protocol: as §1, §2

hepatic Cyp2b2 protein = experiment: Hepatic protein expression by Western blotting; type: in vivo, rat; details: 2.56 nmol/kg/day i.p. for 4 days, n = 5, p = 0.1728
Protocol: (§3) (Seoul, Korea). […] On the fifth day, rats were used for pharmacokinetic study. For protein extraction, the rat liver tissues were homogenized in RIPA buffer (#89900, ThermoFisher Scientific, Waltham, MA, USA) with protease/phosphatase inhibitors using a Diax 900 homogenizer. The homogenized liver samples were incubated in ice for 30 min (for complete lysis) with vortexing every 5 min, and then centrifuged at 14,000× g for 30 min. The supernatants were collected and diluted by 10 times. The protein levels were quantified using the BCA Protein Assay Kit (#23227, ThermoFisher Scientific, Waltham, MA, USA) with bovine serum albumin (BSA) standards. Total protein lysates were subjected to Western blot analysis. Lysates were mixed with 2X Laemmli buffer (Bio-Rad) supplemented with β-mercaptoethanol (Bio-Rad) and boiled for 5 min. […] Immunoblotting was performed with the following antibodies: rabbit CYP2C11 antibody (#ab3571, Abcam, Cambridge, UK), rabbit UGT1A6 antibody (#ab157476, Abcam, Cambridge, UK) and mouse CYP2B1/B2 antibody (#sc-53244, Santa Cruz Biotechnology, Dallas, TX, USA) and HRP-conjugated β-actin mouse antibody (Sigma; cat#A3854; 1:10,000). The following secondary antibodies were used: HRP-conjugated goat antibody to mouse IgG (Genetex; cat# GTX-213111-01, 1:5000), HRP-conjugated goat antibody to rabbit IgG (Genetex; cat# GTX-213110-01; 1:5000). Then, the bands were visualized via chemiluminescence (#34577, ThermoFisher Scientific, Waltham, MA, USA). Densitometric analysis of the bands was performed using ImageJ software (NIH; rsb.info.nih.gov/ij).

hepatic Cyp2b1 protein = experiment: Hepatic protein expression by Western blotting; type: in vivo, rat; details: 2.56 nmol/kg/day i.p. for 4 days, n = 5, p = 0.0006
Protocol: as §3

hepatic Cyp2c11 protein = experiment: Hepatic protein expression by Western blotting; type: in vivo, rat; details: 2.56 nmol/kg/day i.p. for 4 days, n = 5, p = 0.0001
Protocol: as §3

hepatic Ugt1a6 protein = experiment: Hepatic protein expression by Western blotting; type: in vivo, rat; details: 2.56 nmol/kg/day i.p. for 4 days, n = 5, p = 0.5192
Protocol: as §1

liver tissue = experiment: Liver histology (H&E) after 1,25(OH)2D3 treatment; type: in vivo, rat; details: H&E sections after four days of treatment
Protocol: as §1

[2] = substrate: CCCCNC(=O)NS(=O)(=O)c1ccc(C)cc1
[3] = substrate: CC(NC(C)(C)C)C(=O)c1cccc(Cl)c1

**Q.** For `C=C1/C(=C\C=C2/CCC[C@]3(C)[C@@H]([C@H](C)CCCC(C)(C)O)CC[C@@H]23)C[C@@H](O)C[C@@H]1O` [1,25(OH)2D3, 1α,25-dihydroxyvitamin D3], which Albumin [1] is on record?
**A.** 3.97 ± 0.15 g/dL

**Q.** And the Total protein [1]?
**A.** 5.73 ± 0.25 g/dL

**Q.** And the sGOT [1]?
**A.** 158 ± 35 IU/L

**Q.** And the sGPT [1]?
**A.** 22.7 ± 3.2 IU/L

**Q.** What about the “mRNA expression of hepatic Cyp2b1 vs control rats” value (hepatic Cyp2b1 mRNA) of the same molecule?
**A.** significantly lower

**Q.** And the “mRNA expression of hepatic Cyp2d2 vs control rats” value (hepatic Cyp2d2 mRNA)?
**A.** no significant differences

**Q.** And the “mRNA expression of hepatic Ugt1a6 vs control rats” value (hepatic Ugt1a6 mRNA)?
**A.** significantly lower

**Q.** What about the “mRNA expression of hepatic Cyp1a2 vs control rats” value (hepatic Cyp1a2 mRNA) of the same molecule?
**A.** no significant differences

**Q.** What about the “mRNA expression of hepatic Ugt1a1 vs control rats” value (hepatic Ugt1a1 mRNA) of the same molecule?
**A.** no significant differences

**Q.** And the “mRNA expression of hepatic Cyp2c11 vs control rats” value (hepatic Cyp2c11 mRNA)?
**A.** significantly lower

**Q.** What about the “mRNA expression of hepatic Ugt2b3 vs control rats” value (hepatic Ugt2b3 mRNA) of the same molecule?
**A.** no significant differences

**Q.** And the “mRNA expression of hepatic Ugt2b1 vs control rats” value (hepatic Ugt2b1 mRNA)?
**A.** no significant differences

**Q.** And the “mRNA expression of hepatic Ugt1a7 vs control rats” value (hepatic Ugt1a7 mRNA)?
**A.** no significant differences

**Q.** What about the “mRNA expression of hepatic Cyp2c6 vs control rats” value (hepatic Cyp2c6 mRNA) of the same molecule?
**A.** no significant differences

**Q.** And the “mRNA expression of hepatic Ugt1a8 vs control rats” value (hepatic Ugt1a8 mRNA)?
**A.** no significant differences

**Q.** And the “Hepatic Cyp2b2 protein expression vs control rats” value (hepatic Cyp2b2 protein)?
**A.** lower, but this difference is not significant

**Q.** And the “Hepatic Cyp2b1 protein expression vs control rats” value (hepatic Cyp2b1 protein)?
**A.** significantly decreased

**Q.** What about the “Hepatic Cyp2c11 protein level vs control rats” value (hepatic Cyp2c11 protein) of the same molecule?
**A.** significantly lower

**Q.** What about the “Hepatic Ugt1a6 protein expression vs control rats” value (hepatic Ugt1a6 protein) of the same molecule?
**A.** remained unchanged

**Q.** What about the “Damage to liver tissue (histology)” value (liver tissue) of the same molecule?
**A.** no apparent evidence of damage to liver tissue

B1: Cyp2c11 (Rattus norvegicus) (protein)
chain: MDPVLVLVLTLSSLLLLSLWRQSFGRGKLPPGPTPLPIIGNTLQIYMKDIGQSIKKFSKVYGPIFTLYLGMKPFVVLHGYEAVKEALVDLGEEFSGRGSFPVSERVNKGLGVIFSNGMQWKEIRRFSIMTLRTFGMGKRTIEDRIQEEAQCLVEELRKSKGAPFDPTFILGCAPCNVICSIIFQNRFDYKDPTFLNLMHRFNENFRLFSSPWLQVCNTFPAIIDYFPGSHNQVLKNFFYIKNYVLEKVKEHQESLDKDNPRDFIDCFLNKMEQEKHNPQSEFTLESLVATVTDMFGAGTETTSTTLRYGLLLLLKHVDVTAKVQEEIERVIGRNRSPCMKDRSQMPYTDAVVHEIQRYIDLVPTNLPHLVTRDIKFRNYFIPKGTNVIVSLSSILHDDKEFPNPEKFDPGHFLDERGNFKKSDYFMPFSAGKRICAGEALARTELFLFFTTILQNFNLKSLVDVKDIDTTPAISGFGHLPPFYEACFIPVQRADSLSSHL
**Q.** With B1 as the molecule, how does the Km [2] read?
**A.** 232.83 ± 51.33 µM

**Q.** What about the Vmax [2] of the same molecule?
**A.** 683.37 ± 94.05 pmol/min/mg protein

B2: Cyp2b1 (Rattus norvegicus) (protein)
chain: MEPTILLLLALLVGFLLLLVRGHPKSRGNFPPGPRPLPLLGNLLQLDRGGLLNSFMQLREKYGDVFTVHLGPRPVVMLCGTDTIKEALVGQAEDFSGRGTIAVIEPIFKEYGVIFANGERWKALRRFSLATMRDFGMGKRSVEERIQEEAQCLVEELRKSQGAPLDPTFLFQCITANIICSIVFGERFDYTDRQFLRLLELFYRTFSLLSSFSSQVFEFFSGFLKYFPGAHRQISKNLQEILDYIGHIVEKHRATLDPSAPRDFIDTYLLRMEKEKSNHHTEFHHENLMISLLSLFFAGTETSSTTLRYGFLLMLKYPHVAEKVQKEIDQVIGSHRLPTLDDRSKMPYTDAVIHEIQRFSDLVPIGVPHRVTKDTMFRGYLLPKNTEVYPILSSALHDPQYFDHPDSFNPEHFLDANGALKKSEAFMPFSTGKRICLGEGIARNELFLFFTTILQNFSVSSHLAPKDIDLTPKESGIGKIPPTYQICFSAR
**Q.** For B2, which Km [3] is on record?
**A.** 171.70 ± 39.46 µM

**Q.** What about the Vmax [3] of the same molecule?
**A.** 35.20 ± 6.62 pmol/min/mg protein
